In patent US10676431B2, “Phenylpyrrolidinone formyl peptide 2 receptor agonists” (BRISTOL-MYERS SQUIBB COMPANY, priority 2018, dated 2020):

Columns and labels:
human FPR1 = human FPR1 (Homo sapiens (Human), UniProt P21462); experiment: FPR1 cyclic adenosine monophosphate (cAMP) assay; type: cell-based; settings: CHO cells overexpressing human FPR1; forskolin 10 μM, IBMX 200 μM; inhibition of cAMP production, HTRF; read-out: hFPR1 cAMP EC50
Procedure: FPR2 and FPR1 Cyclic Adenosine Monophosphate (cAMP) Assays. A mixture of forskolin (5 μM final for FPR2 or 10 μM final for FPR1) and IBMX (200 μM final) were added to 384-well Proxiplates (Perkin-Elmer) pre-dotted with test compounds in DMSO (1% final) at final concentrations in the range of 0.020 nM to 100 μM. Chinese Hamster Ovary cells (CHO) overexpressing human FPR1 or human FPR2 receptors were cultured in F-12 (Ham's) medium supplemented with 10% qualified FBS, 250 μg/ml zeocin and 300 μg/ml hygromycin (Life Technologies). Reactions were initiated by adding 2,000 human FPR2 cells per well or 4,000 human FPR1 cells per well in Dulbecco's PBS (with calcium and magnesium) (Life Technologies) supplemented with 0.1% BSA (Perkin-Elmer). The reaction mixtures were incubated for 30 min at room temperature. The level of intracellular cAMP was determined using the HTRF HiRange cAMP assay reagent kit (Cisbio) according to manufacturer's instruction. Solutions of cryptate conjugated anti-cAMP and d2 fluorophore-labelled cAMP were made in a supplied lysis buffer separately. Upon completion of the reaction, the cells were lysed with equal volume of the d2-cAMP solution and anti-cAMP solution. […] The potency and activity of a compound to inhibit cAMP production was then determined by fitting to a 4-parametric logistic equation from a plot of cAMP level versus compound concentrations.

human FPR2 = human FPR2 (Homo sapiens (Human), UniProt P25090); experiment: FPR2 cyclic adenosine monophosphate (cAMP) assay; type: cell-based; settings: CHO cells overexpressing human FPR2; forskolin 5 μM, IBMX 200 μM; inhibition of cAMP production, HTRF; read-out: hFPR2 cAMP2 EC50
Procedure: FPR2 and FPR1 Cyclic Adenosine Monophosphate (cAMP) Assays. A mixture of forskolin (5 μM final for FPR2 or 10 μM final for FPR1) and IBMX (200 μM final) were added to 384-well Proxiplates (Perkin-Elmer) pre-dotted with test compounds in DMSO (1% final) at final concentrations in the range of 0.020 nM to 100 μM. Chinese Hamster Ovary cells (CHO) overexpressing human FPR1 or human FPR2 receptors were cultured in F-12 (Ham's) medium supplemented with 10% qualified FBS, 250 μg/ml zeocin and 300 μg/ml hygromycin (Life Technologies). Reactions were initiated by adding 2,000 human FPR2 cells per well or 4,000 human FPR1 cells per well in Dulbecco's PBS (with calcium and magnesium) (Life Technologies) supplemented with 0.1% BSA (Perkin-Elmer). The reaction mixtures were incubated for 30 min at room temperature. The level of intracellular cAMP was determined using the HTRF HiRange cAMP assay reagent kit (Cisbio) according to manufacturer's instruction. Solutions of cryptate conjugated anti-cAMP and d2 fluorophore-labelled cAMP were made in a supplied lysis buffer separately. Upon completion of the reaction, the cells were lysed with equal volume of the d2-cAMP solution and anti-cAMP solution. After a 1-h room temperature incubation, time-resolved fluorescence intensity was measured using the Envision (Perkin-Elmer) at 400 nm excitation and dual emission at 590 nm and 665 nm. A calibration curve was constructed with an external cAMP standard at concentrations ranging from 1 μM to 0.1 pM by plotting the fluorescent intensity ratio from 665 nm emission to the intensity from the 590 nm emission against cAMP concentrations. The potency and activity of a compound to inhibit cAMP production was then determined by fitting to a 4-parametric logistic equation from a plot of cAMP level versus compound concentrations.

human FPR2, sequence (P25090 whole entry): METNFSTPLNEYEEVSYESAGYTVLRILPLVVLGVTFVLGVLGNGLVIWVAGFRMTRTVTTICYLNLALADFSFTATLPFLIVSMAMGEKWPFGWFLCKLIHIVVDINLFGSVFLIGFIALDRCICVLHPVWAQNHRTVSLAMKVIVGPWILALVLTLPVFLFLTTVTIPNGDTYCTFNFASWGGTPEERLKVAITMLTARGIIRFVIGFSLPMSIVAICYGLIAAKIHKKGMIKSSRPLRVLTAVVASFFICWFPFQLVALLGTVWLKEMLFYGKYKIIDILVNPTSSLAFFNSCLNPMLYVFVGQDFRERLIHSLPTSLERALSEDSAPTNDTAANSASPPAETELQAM
human FPR1, sequence (P21462 whole entry): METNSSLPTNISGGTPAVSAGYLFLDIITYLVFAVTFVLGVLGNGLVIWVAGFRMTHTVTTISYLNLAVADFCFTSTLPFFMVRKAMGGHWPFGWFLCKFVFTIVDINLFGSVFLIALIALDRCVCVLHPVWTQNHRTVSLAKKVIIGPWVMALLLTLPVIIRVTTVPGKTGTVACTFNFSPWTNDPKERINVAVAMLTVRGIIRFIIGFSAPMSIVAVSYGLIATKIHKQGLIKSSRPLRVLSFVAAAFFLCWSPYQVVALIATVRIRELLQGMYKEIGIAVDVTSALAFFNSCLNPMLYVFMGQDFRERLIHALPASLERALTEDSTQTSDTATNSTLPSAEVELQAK

SMILES | EC50 (human FPR1) | EC50 (human FPR2)
CS(=O)(=O)Nc1ncccc1-c1ccc(N2CC[C@@H](NC(=O)Nc3ccc(Cl)cc3F)C2=O)c(F)c1F [Example 23] | 700 nM | 8.2 nM
CP(C)(=O)c1ccccc1-c1ccc(N2CC[C@@H](NC(=O)Nc3ncc(C(F)(F)F)cc3F)C2=O)c(F)c1F [Example 55] | > 10000 nM | 22 nM
CS(=O)(=O)c1ccccc1-c1ccc(N2CC[C@@H](NC(=O)Nc3ccc(Cl)cn3)C2=O)c(F)c1F [Example 24] | 1400 nM | 22 nM
CP(C)(=O)c1ccccc1-c1cc(F)c(N2CC[C@@H](NC(=O)Nc3ccc(Cl)cc3F)C2=O)c(F)c1 [Example 53] | 2700 nM | 7.8 nM
CC1(C)CN(c2ccc(-c3ccccc3P(C)(C)=O)c(F)c2F)C(=O)[C@@H]1NC(=O)Nc1ccc(Cl)cc1F [Example 103] | 350 nM | 0.57 nM
CS(=O)(=O)Nc1ccccc1-c1ccc(N2CC[C@@H](NC(=O)Nc3ccc(C(F)(F)F)cc3F)C2=O)c(F)c1F [Example 33] | 470 nM | 1.1 nM
COc1ccc(NC(=O)N[C@@H]2CCN(c3ccc(-c4ccccc4S(C)(=O)=O)c(F)c3F)C2=O)cc1 [Example 54] | 900 nM | 5.5 nM
CS(=O)(=O)Nc1ccccc1-c1ccc(N2CC[C@@H](NC(=O)Nc3ccc(C(F)(F)F)cc3)C2=O)cc1 [Example 14] | 600 nM | 7.2 nM
CP(C)(=O)c1ncncc1-c1ccc(N2CC[C@@H](NC(=O)Nc3ccc(C(F)(F)F)cc3F)C2=O)c(F)c1F [Example 93] | 780 nM | 12 nM

Compounds with a lower EC50 (human FPR1), results first:

EC50 (human FPR1) | EC50 (human FPR2) | SMILES
190 nM | 7 nM | CS(=O)(=O)c1ccccc1-c1ccc(N2CC[C@@H](NC(=O)Nc3ccc(C(F)(F)F)cc3F)C2=O)c(F)c1F [Example 29]
4.9 nM | 5.3 nM | CP(C)(=O)c1ccccc1-c1ccc(N2CC[C@@H](NC(=O)Nc3ccc(C(F)(F)F)cc3F)C2=O)c(F)c1OC(F)(F)F [Example 88]
280 nM | 6 nM | CP(C)(=O)c1ncncc1-c1ccc(N2CC[C@@H](NC(=O)Nc3ccc(Cl)cc3F)C2=O)c(F)c1F [Example 84]
12 nM | 1.8 nM | CP(C)(=O)c1ccccc1-c1ccc(N2CC[C@@H](NC(=O)Nc3ccc(C(F)(F)F)cc3F)C2=O)c(F)c1C(F)(F)F [Example 94]
5 nM | 0.3 nM | CC1C[C@@H](NC(=O)Nc2ccc(Cl)cc2F)C(=O)N1c1ccc(-c2cccnc2P(C)(C)=O)c(F)c1F (stereo partly shown) [Example 121]
190 nM | 1 nM | CS(=O)(=O)Nc1ccccc1-c1ccc(N2CC[C@@H](NC(=O)Nc3ccc(C(F)(F)F)cc3)C2=O)c(F)c1F [Example 6]
25 nM | 4.4 nM | CP(C)(=O)c1ccccc1-c1ccc(N2CC[C@@H](NC(=O)Nc3ccc(C(F)(F)F)cc3F)C2=O)c(F)c1C1CC1 [Example 89, (R)-1-(1-(2-Cyclopropyl-2′-(dimethylphosphoryl)-3-fluoro-[1,1′-biphenyl]-4-yl)-2-oxopyrrolidin-3-yl)-3-(2-fluoro-4-(trifluoromethyl)phenyl)urea]
21 nM | 0.85 nM | CP(C)(=O)c1c(F)cccc1-c1ccc(N2CC[C@@H](NC(=O)Nc3ccc(C(F)(F)F)cc3F)C2=O)c(F)c1Cl [Example 86]
28 nM | 0.48 nM | CP(C)(=O)c1ccccc1-c1ccc(N2CC3(CC3)[C@@H](NC(=O)Nc3ccc(Cl)cc3F)C2=O)c(F)c1F [Example 132]
1.2 nM | 1.6 nM | CP(C)(=O)c1ccccc1-c1ccc(N2CC[C@@H](NC(=O)Nc3ccc(Cl)cc3F)C2=O)c(F)c1OC(F)(F)F [Example 87]
260 nM | 0.53 nM | CP(C)(=O)c1ccccc1-c1ccc(N2CC[C@@H](NC(=O)Nc3ccc(Cl)cc3F)C2=O)c(F)c1F [Example 25, (R)-1-(4-chloro-2-fluorophenyl)-3-(1-(2′-(dimethylphosphoryl)-2,3-difluoro-[1,1′-biphenyl]-4-yl)-2-oxopyrrolidin-3-yl)urea]
